Assay results from the supplement of paper PMC11451515.

Test system: P12-Ichikawa
Assay: cell viability relative to DMSO control; higher = less cytotoxic
Details: 48 h
Outline: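 NOMO1, SEM and P12-Ichikawa leukemia cells spent at least four passages adapting to each medium before use. They were seeded at 500 cells/well (NOMO1, SEM) or 1000 cells/well (P12-Ichikawa) in 5 μl in 1536-well plates and pin-dosed with library compounds in DMSO at 11 threefold steps from 47 μM down to 0.79 nM. After 48 h at 37°C, CellTiter-Glo One luminescence was read. Viability is reported as a percentage of the DMSO wells on each plate, with cell-free wells as background.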

[1] = HPLM + 10% dialyzed FBS, 0.000781 µM
[2] = HPLM + 10% dialyzed FBS, 0.00234 µM
[3] = HPLM + 10% dialyzed FBS, 0.00702 µM
[4] = HPLM + 10% dialyzed FBS, 0.0211 µM
[5] = HPLM + 10% dialyzed FBS, 0.0632 µM
[6] = HPLM + 10% dialyzed FBS, 0.19 µM
[7] = HPLM + 10% dialyzed FBS, 0.569 µM
[8] = HPLM + 10% dialyzed FBS, 1.71 µM
[9] = HPLM + 10% dialyzed FBS, 5.12 µM
[10] = HPLM + 10% dialyzed FBS, 15.4 µM
[11] = HPLM + 10% dialyzed FBS, 46.1 µM
[12] = RPMI 5 mM glucose + 10% FBS, 0.000781 µM
[13] = RPMI 5 mM glucose + 10% FBS, 0.00234 µM
[14] = RPMI 5 mM glucose + 10% FBS, 0.00702 µM
[15] = RPMI 5 mM glucose + 10% FBS, 0.0211 µM
[16] = RPMI 5 mM glucose + 10% FBS, 0.0632 µM
[17] = RPMI 5 mM glucose + 10% FBS, 0.19 µM
[18] = RPMI 5 mM glucose + 10% FBS, 0.569 µM
[19] = RPMI 5 mM glucose + 10% FBS, 1.71 µM
[20] = RPMI 5 mM glucose + 10% FBS, 5.12 µM
[21] = RPMI 5 mM glucose + 10% FBS, 15.4 µM
[22] = RPMI 5 mM glucose + 10% FBS, 46.1 µM
[23] = RPMI 5 mM glucose + 10% dialyzed FBS, 0.000781 µM
[24] = RPMI 5 mM glucose + 10% dialyzed FBS, 0.00234 µM
[25] = RPMI 5 mM glucose + 10% dialyzed FBS, 0.00702 µM
[26] = RPMI 5 mM glucose + 10% dialyzed FBS, 0.0211 µM
[27] = RPMI 5 mM glucose + 10% dialyzed FBS, 0.0632 µM
[28] = RPMI 5 mM glucose + 10% dialyzed FBS, 0.19 µM
[29] = RPMI 5 mM glucose + 10% dialyzed FBS, 0.569 µM
[30] = RPMI 5 mM glucose + 10% dialyzed FBS, 1.71 µM
[31] = RPMI 5 mM glucose + 10% dialyzed FBS, 5.12 µM
[32] = RPMI 5 mM glucose + 10% dialyzed FBS, 15.4 µM
[33] = RPMI 5 mM glucose + 10% dialyzed FBS, 46.1 µM

Cc1cc2c(C(N)=O)cccc2n1-c1nc2c(c(NCc3ccccc3)n1)COCC2 gave a cell viability [1] of 99.5%, a cell viability [2] of 92.4% and a cell viability [3] of 92.2%. The cell viability [4] was 93.2%, the cell viability [5] was 99.8% and the cell viability [6] was 89.6%. It also gave a cell viability [7] of 78.4%, a cell viability [8] of 85.9% and a cell viability [9] of 2.18%. For the same compound, the cell viability [10] was 2.06%, the cell viability [11] was 3.98% and the cell viability [12] was 99.6%. The cell viability [13] was 96.2%, the cell viability [14] was 95.5% and the cell viability [15] was 93.8%. It also gave a cell viability [16] of 91.2%, a cell viability [17] of 94.6% and a cell viability [18] of 81.7%. For the same compound, the cell viability [19] was 63.1%, the cell viability [20] was 2.37% and the cell viability [21] was 1.97%. For the same compound, the cell viability [22] was 2.61%, the cell viability [23] was 95.9% and the cell viability [24] was 94.4%. The cell viability [25] was 95.6%, the cell viability [26] was 97.7% and the cell viability [27] was 96.3%. For the same compound, the cell viability [28] was 95.4%, the cell viability [29] was 91.8% and the cell viability [30] was 72.9%. For the same compound, the cell viability [31] was 2.73%, the cell viability [32] was 2.42% and the cell viability [33] was 2.96%.
COC1=CC=C(C(=C1)OC(C)C)C/2=N/[C@@H]([C@@H](N2C(=O)N3CCNC(=O)C3)C4=CC=C(Cl)C=C4)C5=CC=C(Cl)C=C5 was tested, and the cell viability [1] was 108%, the cell viability [2] was 113% and the cell viability [3] was 115%. For the same compound, the cell viability [4] was 108%, the cell viability [5] was 109% and the cell viability [6] was 111%. For the same compound, the cell viability [7] was 108%, the cell viability [8] was 102% and the cell viability [9] was 76%. The cell viability [10] was 37.1%, the cell viability [11] was 12.1% and the cell viability [12] was 122%. The cell viability [13] was 125%, the cell viability [14] was 127% and the cell viability [15] was 119%. The cell viability [16] was 116%, the cell viability [17] was 118% and the cell viability [18] was 106%. It also gave a cell viability [19] of 111%, a cell viability [20] of 97.2% and a cell viability [21] of 52%. It also gave a cell viability [22] of 49.6%, a cell viability [23] of 122% and a cell viability [24] of 119%. The cell viability [25] was 116%, the cell viability [26] was 117% and the cell viability [27] was 125%. For the same compound, the cell viability [28] was 113%, the cell viability [29] was 112% and the cell viability [30] was 110%. It also gave a cell viability [31] of 88.3%, a cell viability [32] of 41.5% and a cell viability [33] of 27.8%.
COC(=O)c1ccc2c(c1)NC(=O)/C2=C(\Nc1ccc(N(C)C(=O)CN2CCN(C)CC2)cc1)c1ccccc1 was tested, and the cell viability [1] was 105%, the cell viability [2] was 109% and the cell viability [3] was 102%. It also gave a cell viability [4] of 101%, a cell viability [5] of 92.6% and a cell viability [6] of 101%. For the same compound, the cell viability [7] was 102%, the cell viability [8] was 102% and the cell viability [9] was 98.6%. The cell viability [10] was 95.9%, the cell viability [11] was 96.9% and the cell viability [12] was 106%. For the same compound, the cell viability [13] was 102%, the cell viability [14] was 96.1% and the cell viability [15] was 86%. It also gave a cell viability [16] of 101%, a cell viability [17] of 104% and a cell viability [18] of 101%. It also gave a cell viability [19] of 94%, a cell viability [20] of 102% and a cell viability [21] of 97.3%. It also gave a cell viability [22] of 89.3%, a cell viability [23] of 102% and a cell viability [24] of 104%. It also gave a cell viability [25] of 104%, a cell viability [26] of 90.2% and a cell viability [27] of 101%. The cell viability [28] was 99%, the cell viability [29] was 95.6% and the cell viability [30] was 93.4%. It also gave a cell viability [31] of 99.4%, a cell viability [32] of 86.2% and a cell viability [33] of 93.5%.
COc1ccc(C(=O)c2c(C)n(CCN3CCOCC3)c3cc(I)ccc23)cc1 was tested, and the cell viability [1] was 106%, the cell viability [2] was 113% and the cell viability [3] was 113%. For the same compound, the cell viability [4] was 124%, the cell viability [5] was 124% and the cell viability [6] was 121%. For the same compound, the cell viability [7] was 119%, the cell viability [8] was 120% and the cell viability [9] was 39.7%. For the same compound, the cell viability [10] was 13.7%, the cell viability [11] was 9.27% and the cell viability [12] was 115%. The cell viability [13] was 121%, the cell viability [14] was 128% and the cell viability [15] was 122%. For the same compound, the cell viability [16] was 129%, the cell viability [17] was 124% and the cell viability [18] was 133%. For the same compound, the cell viability [19] was 130%, the cell viability [20] was 41.6% and the cell viability [21] was 14.3%. For the same compound, the cell viability [22] was 12.3%, the cell viability [23] was 102% and the cell viability [24] was 110%. The cell viability [25] was 130%, the cell viability [26] was 118% and the cell viability [27] was 129%. The cell viability [28] was 134%, the cell viability [29] was 131% and the cell viability [30] was 126%. It also gave a cell viability [31] of 94.2%, a cell viability [32] of 32.8% and a cell viability [33] of 14.9%.
Compound CCCCCNC(=O)N1CCC(CN(Cc2ccc(Cl)cc2)Cc2ccc([N+](=O)[O-])s2)C1 (stereo unspecified) has a cell viability [1] of 113%, a cell viability [2] of 127% and a cell viability [3] of 119%. For the same compound, the cell viability [4] was 121%, the cell viability [5] was 111% and the cell viability [6] was 114%. It also gave a cell viability [7] of 111%, a cell viability [8] of 110% and a cell viability [9] of 103%. For the same compound, the cell viability [10] was 96.9%, the cell viability [11] was 85.6% and the cell viability [12] was 108%. For the same compound, the cell viability [13] was 116%, the cell viability [14] was 113% and the cell viability [15] was 107%. For the same compound, the cell viability [16] was 114%, the cell viability [17] was 100% and the cell viability [18] was 107%. For the same compound, the cell viability [19] was 97%, the cell viability [20] was 103% and the cell viability [21] was 90.4%. It also gave a cell viability [22] of 74.2%, a cell viability [23] of 123% and a cell viability [24] of 104%. It also gave a cell viability [25] of 104%, a cell viability [26] of 117% and a cell viability [27] of 111%. It also gave a cell viability [28] of 113%, a cell viability [29] of 109% and a cell viability [30] of 95.2%. It also gave a cell viability [31] of 101%, a cell viability [32] of 94.3% and a cell viability [33] of 78.9%.
For Nc1ncnc2c1ncn2[C@@H]1O[C@H](CO)C[C@H]1O, the cell viability [1] was 92.5%, the cell viability [2] was 96.4% and the cell viability [3] was 92.8%. The cell viability [4] was 93.1%, the cell viability [5] was 98.8% and the cell viability [6] was 94.1%. It also gave a cell viability [7] of 93.1%, a cell viability [8] of 88.8% and a cell viability [9] of 92.2%. The cell viability [10] was 89.3%, the cell viability [11] was 89% and the cell viability [12] was 87.9%. For the same compound, the cell viability [13] was 104%, the cell viability [14] was 94% and the cell viability [15] was 94.4%. It also gave a cell viability [16] of 87.7%, a cell viability [17] of 96% and a cell viability [18] of 93%. It also gave a cell viability [19] of 93.5%, a cell viability [20] of 85.3% and a cell viability [21] of 86.8%. The cell viability [22] was 87.6%, the cell viability [23] was 83.8% and the cell viability [24] was 90.1%. For the same compound, the cell viability [25] was 97.7%, the cell viability [26] was 90.9% and the cell viability [27] was 87.4%. It also gave a cell viability [28] of 91.2%, a cell viability [29] of 94.5% and a cell viability [30] of 87.6%. The cell viability [31] was 86.1%, the cell viability [32] was 89.6% and the cell viability [33] was 92.3%.
Work on CCCCOc1c(C(=O)c2c(F)cc(C)cc2F)cnc2[nH]ncc12 yielded a cell viability [1] of 97.5%, a cell viability [2] of 102% and a cell viability [3] of 104%. It also gave a cell viability [4] of 109%, a cell viability [5] of 107% and a cell viability [6] of 89.6%. It also gave a cell viability [7] of 104%, a cell viability [8] of 107% and a cell viability [9] of 102%. The cell viability [10] was 91.3%, the cell viability [11] was 95.5% and the cell viability [12] was 104%. It also gave a cell viability [13] of 99%, a cell viability [14] of 107% and a cell viability [15] of 102%. It also gave a cell viability [16] of 104%, a cell viability [17] of 108% and a cell viability [18] of 103%. For the same compound, the cell viability [19] was 105%, the cell viability [20] was 88.4% and the cell viability [21] was 94.4%. The cell viability [22] was 77.9%, the cell viability [23] was 107% and the cell viability [24] was 104%. The cell viability [25] was 102%, the cell viability [26] was 104% and the cell viability [27] was 101%. The cell viability [28] was 97.4%, the cell viability [29] was 93.8% and the cell viability [30] was 94.6%. For the same compound, the cell viability [31] was 78.9%, the cell viability [32] was 89.6% and the cell viability [33] was 81.3%.
